Consider one compound from US20230144023A1, “USE OF BUTYLPHTHALIDE AND DERIVATIVE THEREOF” (CSPC NBP PHARMACEUTICAL CO., LTD, priority 2020, published 2023).

Values joined by “and” are separate entries in the source; they are usually repeats but may differ in a detail not shown here. Identical values can stand only once.

One data set has as its system MM.1S xenograft tumor. As to the kind of experiment: Influence of NBP on in vivo anti-tumor efficacy of Bortezomib, MM.1S xenograft (Example 8). Also noted: species or system Nu/Nu mice. The procedure: After in vitro resuscitation and passage of MM.1S cells to a sufficient amount, the cells were counted by a microscope, and diluted with a serum-free medium to adjust the cell count to about 1×10^8 cells/mL. The cell suspension was kept in an ice-water bath. The MM.1S cell suspension was extracted by a sterile syringe and inoculated into the subcutaneous tissue of the forelimb axilla of the Nu/Nu mice. […] Monotherapy group of Palbociclib: intragastric administration at 70 mg/kg, qd (the administration was commenced on day 0); […] The solvent group was given the solvent at the same frequency and with the same administration method as Bortezomib and NBP. The administration period was 16 days, and the administration volume was 10 mL/kg. […] Animals were weighed at set time once per day after the commencement of administration. After animals were grouped, the long diameter and the short diameter of the tumor were measured twice every week. […] V=1⁄2×A×B^2 […] (4) Tumor growth inhibition rate: Note: V: tumor volume; A: tumor length; B: tumor width; RTV: relative tumor volume; TVnd: tumor volume on day n; TV0d: tumor volume on day 0; […]: mean relative tumor volume on day n; TVXn: mean tumor volume of the therapy group on day n; TVX0: mean tumor volume of the therapy group on day 0; TVMn: mean tumor volume of the solvent group on day n; and TVM0: mean tumor volume of the solvent group on day 0 At the end of the experiment, after the animals were euthanized by CO2 asphyxiation, the tumors were excised and weighed.

For data set [1], the system named is MM.1S, Jeko-1, HT29, A549, DU145. As to the kind of experiment: In vitro proliferation of 5 cell strains, summary statements (Example 7). The format is cell-based, Human. The note with it: Homo sapiens; range over MM.1S, Jeko-1, HT29, A549, DU145; combined therapy with 30 μM NBP. The method, then:
Different drug concentration gradients were set for each group.
Monotherapy group of NBP: NBP was 2× serially diluted from an initial concentration of 480 μM to 8 concentrations: 480, 240, 120, 60, 30, 15, 7.5, and 3.75 μM, respectively.
The action time of the drug was 72 h.
3 replicate wells were set for each concentration of each drug, and blank wells (only culture medium was present, and no tumor cells were inoculated) and normal wells (a culture medium inoculated with tumor cells, drug concentration was 0) were set.

A short description of data set [2]: PK of Bortezomib and butylphthalide in plasma of MM.1S tumor-bearing mice (Example 8). Format: in vivo, Nu/Nu mice. The method, then:
Monotherapy group of Bortezomib: administered by intraperitoneal injection at 0.5 mg/kg, biw (on days 0, 3, 7, 10, and 15);
Monotherapy group of NBP: administered by transoral gavage at 60 mg/kg, bid (the administration was commenced on day 0), and the second dose of NBP was administered with an interval from the first dose of ≥4 h;
Monotherapy group of Palbociclib: intragastric administration at 70 mg/kg, qd (the administration was commenced on day 0);
Combined therapy group of NBP/Bortezomib: the administration frequency and dose were the same as the frequency and dose of the monotherapy group of NBP and the monotherapy group of Bortezomib, respectively.
Combined therapy group of Bortezomib/Palbociclib: the administration frequency and dose were the same as the frequency and dose of the monotherapy group of Bortezomib and the monotherapy group of Palbociclib, respectively.
Combined therapy group of NBP/Bortezomib/Palbociclib: the administration frequency and dose were the same as the frequency and dose of the monotherapy group of NBP, the monotherapy group of Bortezomib, and the monotherapy group of Palbociclib, respectively.
Before administration of the last dose of Bortezomib (0 h), and 5 min, 15 min, 30 min, 1 h, 2 h, 4 h, 8 h, 24 h after the administration, blood was sampled (as detailed in Table 8) (except that blood was sampled from the mice in the solvent group only at 0 h), anticoagulated with heparin, and centrifuged to separate plasma, which was stored at −80° C. for later use. Bortezomib and butyphthalide in the plasma were determined by protein precipitation-LC/MS/MS.

For data set [3] the following is noted: cited from earlier work.
Where [4] appears, read: day 14, Bor 0.5 mg/kg, Pal 70 mg/kg, NBP 60 mg/kg, alone or combined.
Where [5] appears, read: day 14, Bor 0.5 mg/kg, Pal 70 mg/kg, NBP 60 mg/kg, alone or combined, mean, n=6.
The mark [6] stands for this setting: Bor 0.5 mg/kg i.p., Pal 70 mg/kg, NBP 60 mg/kg, mean ± SD, n=6.

A word on the IC50: it is the concentration needed to halve the response being measured. As usually defined, the Cmax is the peak of the concentration-time curve.

As to `CC(C)C[C@H](NC(=O)[C@H](Cc1ccccc1)NC(=O)c1cnccn1)B(O)O` [Bortezomib], in the data set on MM.1S xenograft tumor (setting [4]), the T/C % is 98.0%. Besides, the TGI % in the data set on MM.1S xenograft tumor (setting [4]) is given as 8.7%. The RTV with MM.1S xenograft tumor (setting [5]) was 9.6. Besides, the TV in the data set with MM.1S xenograft tumor (setting [5]) is 1124.8 mm^3. Also, the “Tumor weight inhibition rate” value with MM.1S xenograft tumor (end of experiment, Bor 0.5 mg/kg, Pal 70 mg/kg, NBP 60 mg/kg, alone or combined) was 22.2%. Also, the Tumor weight in the data set with MM.1S xenograft tumor (end of experiment, Bor 0.5 mg/kg, Pal 70 mg/kg, NBP 60 mg/kg, alone or combined, mean, n=6, in g (unit assumed)) is 1.282. The “body weights of the mice” value in the data set with MM.1S xenograft tumor (mouse, in vivo) is “no significant difference”. Moreover, the IC50 is 4.83 nM and 3.51 nM and 4.47 nM and 4.27 nM in the data set on Jeko-1; 4.43 nM and 4.97 nM and 5.65 nM and 5.02 nM with HT29; 11.8 nM and 13.3 nM and 10.6 nM and 11.9 nM in the data set with A549; 1 to 20 nM in data set [1]; 12.8 nM and 11.9 nM and 17.1 nM and 13.9 nM in the data set on DU145; 2.55 nM and 2.94 nM and 2.99 nM and 2.83 nM in the data set on MM.1S. The “CI of Bortezomib” value in data set [2] (setting [6]) is 30.2 ± 9.33 mL/min/kg. For the same compound, in [2] (setting [6]), the “Vd of Bortezomib” value is recorded as 14.2 ± 3.2 L/kg. In data set [2] (Bortezomib 0.5 mg/kg), the “influence of Bortezomib on the pharmacokinetic behavior of NBP in mice” value is on record as “substantially did not affect”. For the same compound, the AUC(0-t) in data set [2] (Nu/Nu, mouse, plasma, ip, Bor 0.5 mg/kg i.p., Pal 70 mg/kg, NBP 60 mg/kg, mean ± SD, n=6, read-out: AUC0-t of Bortezomib in plasma) was 290 ± 104 ng·h/mL. Further, in [2] (Nu/Nu, mouse, plasma, ip, Bor 0.5 mg/kg i.p., Pal 70 mg/kg, NBP 60 mg/kg, mean ± SD, n=6, read-out: MRT0-t of Bortezomib), the MRT last is 5.9 ± 0.8 h. Also, the half-life in data set [2] (Nu/Nu, mouse, plasma, ip, Bor 0.5 mg/kg i.p., Pal 70 mg/kg, NBP 60 mg/kg, mean ± SD, n=6, read-out: t1/2 of Bortezomib in plasma (converted)) was 56.6 ± 1.16 h. Also, the Cmax in data set [2] (Nu/Nu, mouse, plasma, ip, after last Bortezomib dose, Bor 0.5 mg/kg i.p., Pal 70 mg/kg, NBP 60 mg/kg, mean ± SD, n=6, read-out: Cmax of Bortezomib in plasma) was found to be 113 ± 8 ng/mL. The “patients still having clinically significant neuropathy” value in [3] (2-3 months after treatment) is reported as 60-85%. Besides, the “additional patients with moderate to severe neurotoxicity” value in data set [3] (human, in vivo) is reported as ~30%. Moreover, the “patients with severe painful sensory neuropathy” value in data set [3] (human, in vivo) is on record as 50%.
